Results on 16 molecules are retold here after ChEMBL document CHEMBL1132524, “Synthesis and evaluation of analogs of Efavirenz (SUSTIVA) as HIV-1 reverse transcriptase inhibitors” (Bioorg Med Chem Lett, 1999).

Assay [1] concerns the target Human immunodeficiency virus type 1 reverse transcriptase (Human immunodeficiency virus 1, UniProt Q72547). The assay is described as follows: Inhibitory activity against HIV-1 reverse transcriptase enzyme.
Assay [2] concerns Human immunodeficiency virus 1.

The term IC50 denotes the point on the concentration scale where inhibition reaches its midpoint. The low end stands for greater potency in that assay, the high end for weaker potency in that assay. Usually IC90 stands for the concentration needed for an effect of 90%. Low values mean an effect from little substance, high ones a need for much substance. In assay [1], `O=C1Nc2ccccc2C(C#CC2CC2)(C(F)(F)F)O1` (stereo not given) returned a half-inhibitory concentration (IC50) of 478 nM. The same molecule yielded a 90% effect concentration (IC90) in assay [2] of 10.3 nM.

`O=C1Nc2ccc(F)cc2C(C#CC2CC2)(C(F)(F)F)O1` (stereo not given): the 50% inhibitory concentration (IC50) in assay [1] was determined as 190 nM. The molecule further displayed an IC90 in assay [2] of 7.35 nM.

Take `Cc1ccc2c(c1)C(C#CC1CC1)(C(F)(F)F)OC(=O)N2` (stereo not given): in assay [1], the IC50 is 133 nM. In assay [2], this molecule returned a 90% effect concentration (IC90) of 7.11 nM.

For the molecule `CC(C)c1ccc2c(c1)C(C#CC1CC1)(C(F)(F)F)OC(=O)N2` (stereo not given), the IC50 in assay [1] was determined as 1960 nM. Further, the 90% effect concentration (IC90) in assay [2] was 27.8 nM.

With `O=C1Nc2c(F)cc(F)c(F)c2C(C#CC2CC2)(C(F)(F)F)O1` (stereo not given), in assay [1], the IC50 was determined as 800 nM. Moreover, in assay [2], the 90% effect level (IC90) was put at 14 nM. With `O=C1Nc2ccc(F)c(F)c2C(C#CC2CC2)(C(F)(F)F)O1` (stereo not given), the half-inhibitory concentration (IC50) in assay [1] came to 84 nM. `O=C1Nc2cc3ccccc3cc2C(C#CC2CC2)(C(F)(F)F)O1` (stereo not given): in assay [1], the concentration for half-maximal inhibition (IC50) was 1910 nM. Moreover, the 90% effect level in assay [2] (IC90) was put at 26.9 nM. For `O=C1Nc2c(Cl)cc(Cl)cc2C(C#CC2CC2)(C(F)(F)F)O1` (stereo not given), in that order: above 2000 nM and 28.6 nM. As for `COc1ccc2c(c1)C(C#CC1CC1)(C(F)(F)F)OC(=O)N2` (stereo not given), the concentration for half-maximal inhibition (IC50) in assay [1] was determined as 131 nM. In addition, the IC90 in assay [2] was 2 nM. Molecule `O=C1Nc2ccc(OC(F)(F)F)cc2C(C#CC2CC2)(C(F)(F)F)O1` (stereo not given) registered a concentration for half-maximal inhibition (IC50) in assay [1] of 1250 nM. The 90% effect concentration (IC90) in assay [2] was determined as 18.9 nM. In the case of `O=C1Nc2c(cc(F)c(F)c2F)C(C#CC2CC2)(C(F)(F)F)O1` (stereo not given), the IC50 in assay [1] was above 2000 nM. Moreover, in assay [2], the 90% effect level (IC90) was put at 418 nM. In assay [1], `O=C1Nc2c(F)ccc(F)c2C(C#CC2CC2)(C(F)(F)F)O1` (stereo not given) came in with a half-maximal inhibitory concentration (IC50) of 796 nM. Besides, the IC90 in assay [2] came out at 18 nM. Molecule `O=C1Nc2c(F)cc(Cl)cc2C(C#CC2CC2)(C(F)(F)F)O1` (stereo not given) had an IC90 in assay [2] of 7.19 nM. Take `O=C1Nc2cc(F)c(F)c(F)c2C(C#CC2CC2)(C(F)(F)F)O1` (stereo not given): in assay [1], the 50% inhibitory concentration (IC50) was found to be 442 nM. The same molecule yielded an IC90 in assay [2] of 19.6 nM. For `CN(C)c1ccc2c(c1)C(C#CC1CC1)(C(F)(F)F)OC(=O)N2` (stereo not given), the IC50 in assay [1] was determined as 816 nM. In assay [2], the IC90 was 8.33 nM. Molecule `O=C1Nc2ccc(-c3ccccc3)cc2C(C#CC2CC2)(C(F)(F)F)O1` (stereo not given) yielded a half-maximal inhibitory concentration (IC50) in assay [1] above 2000 nM. Besides, in assay [2], the concentration for an effect of 90% (IC90) worked out at 249 nM.
